In the supplement of paper PMC10307832:

How the values were obtained:
Assay in all cases: relative viability (nuclei count vs DMSO), 5 days (fraction); higher = more cells survive
SGI-1776 + OSI-027 = compound: CN1CCC(CNc2ccc3ncc(-c4cccc(OC(F)(F)F)c4)n3n2)CC1 [SGI-1776] + COc1cccc2cc(-c3nc([C@H]4CC[C@H](C(=O)O)CC4)n4ncnc(N)c34)[nH]c12 [OSI-027] (partner 0.5 µM)
Summary of the method: (§1)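 Lung cancer cell lines were pin-tool dosed in 1536-well plates on the day after seeding, with either a lone drug or a fixed anchor-drug dose plus five library-drug doses (not always all listed) in √10 steps. Nuclei were counted on 4× images after 5 days. Relative viability is the ratio of treated-well to vehicle-well nuclei counts, with each value a median of duplicate plates.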

[1] = compound: C1COCCN1C2=NC(=NC3=C2OC4=C3C=CC=N4)C5=CC(=CC=C5)NC(=O)C6=CN=C(C=C6)N + Cc1nc(Nc2ncc(C(=O)Nc3c(C)cccc3Cl)s2)cc(N2CCN(CCO)CC2)n1 [Dasatinib] (partner 0.075 µM)
Summary of the method: as §1

[2] = compound: C1COCCN1C2=NC(=NC3=C2OC4=C3C=CC=N4)C5=CC(=CC=C5)NC(=O)C6=CN=C(C=C6)N + Cc1nc(NC(=O)N2CCC[C@H]2C(N)=O)sc1-c1ccnc(C(C)(C)C(F)(F)F)c1 [Alpelisib] (partner 2 µM)
Summary of the method: as §1

SGI-1776 + Pemetrexed = compound: CN1CCC(CNc2ccc3ncc(-c4cccc(OC(F)(F)F)c4)n3n2)CC1 [SGI-1776] + Nc1nc2[nH]cc(CCc3ccc(C(=O)N[C@@H](CCC(=O)O)C(=O)O)cc3)c2c(=O)[nH]1 [Pemetrexed] (partner 0.2 µM)
Summary of the method: as §1

Cell Line	relative viability (SGI-1776 + OSI-027; first compound 0.08 µM)	relative viability (SGI-1776 + OSI-027; first compound 0.8 µM)	relative viability (SGI-1776 + OSI-027; first compound 2.53 µM)	relative viability (SGI-1776 + OSI-027; first compound 8 µM)	relative viability ([1]; first compound 0.02 µM)	relative viability ([1]; first compound 0.06325 µM)	relative viability ([1]; first compound 0.2 µM)	relative viability ([1]; first compound 0.6325 µM)	relative viability ([1]; first compound 2 µM)	relative viability ([2]; first compound 0.02 µM)	relative viability ([2]; first compound 0.06325 µM)	relative viability ([2]; first compound 0.2 µM)	relative viability ([2]; first compound 0.6325 µM)	relative viability ([2]; first compound 2 µM)	relative viability (SGI-1776 + Pemetrexed; first compound 0.08 µM)	relative viability (SGI-1776 + Pemetrexed; first compound 0.8 µM)	relative viability (SGI-1776 + Pemetrexed; first compound 2.53 µM)	relative viability (SGI-1776 + Pemetrexed; first compound 8 µM)
HCC-366	0.837	0.866	1.02	0.667	0.647	0.745	0.691	0.576	0.26	0.575	0.471	0.314	0.287	0.189	0.184	0.17	0.172	0.164
NCI-H2087	0.704	0.693	0.566	0.496	0.942	0.913	0.799	0.845	0.441	1.05	1.12	1.05	1.12	0.619	0.672	0.607	0.68	0.651
PC-3 [JPC-3]	0.791	0.818	0.74	0.672	1.18	1.08	1.02	0.818	0.629	0.976	1.05	1.1	0.991	0.829	1.17	1.42	0.936	0.495
HOP-62	0.882	0.866	0.802	0.81	0.765	0.743	0.547	0.574	0.323	0.818	1.13	0.947	0.979	0.518	0.306	0.363	0.325	0.31
NCI-H2126	0.708	0.813	0.693	0.659	0.691	0.587	0.528	0.507	0.551	0.778	0.726	0.732	0.753	0.627	0.736	0.693	0.693	0.624
NCI-H1793	0.258	0.253	0.31	0.223	0.378	0.453	0.417	0.334	0.383	0.812	0.842	0.655	0.852	0.59	0.947	1.17	0.835	0.689
RERF-LC-KJ	0.592	0.52	0.507	0.305	0.944	1	0.79	0.713	0.559	0.809	0.946	0.828	0.861	0.616	0.46	0.477	0.461	0.412
H3255	0.65	0.643	0.651	0.555	0.358	0.362	0.35	0.295	0.315	0.577	0.714	0.628	0.693	0.483	0.602	0.609	0.649	0.471
